Key:
Format in all cases: functional
[1] = molecular target: T1, Putative uncharacterized protein pk7 (Plasmodium falciparum, UniProt O96214); experiment: Final concentrations were 1 uM ATP, 2 mM DTT, 20 mM MgCl2, 2 mM MnCl2, 0.01% BSA, and 6 ug/ml PK7, in a buffer of 20 mM Tris-HCl (pH 7.5). The enzyme itself was the only substrate present (since autophosphorylation occurs); 100 uM 1NA-PP1 was used as a control inhibitor. Incubation time was 3 hours.
T1 sequence (O96214 whole entry): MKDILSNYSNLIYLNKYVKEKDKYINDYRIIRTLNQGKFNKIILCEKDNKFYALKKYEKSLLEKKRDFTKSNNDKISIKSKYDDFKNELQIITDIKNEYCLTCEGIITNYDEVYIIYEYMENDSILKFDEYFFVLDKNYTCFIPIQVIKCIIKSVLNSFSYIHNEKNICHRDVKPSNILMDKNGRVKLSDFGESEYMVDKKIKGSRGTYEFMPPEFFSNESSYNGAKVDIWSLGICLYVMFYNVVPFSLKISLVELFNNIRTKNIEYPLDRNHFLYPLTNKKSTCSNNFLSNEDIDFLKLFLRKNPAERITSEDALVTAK

[2] = molecular target: T2, Proline--tRNA ligase (Plasmodium falciparum (isolate 3D7), UniProt Q8I5R7); experiment: MMV: ProRS recombinant Plasmodium falciparum Prolyl-tRNA-synthetase, assay with yeast tRNA, ATP, and proline and 3 uM MMV malaria box compound, assay read out with kinase glo as % inhibition.
T2 sequence (Q8I5R7 whole entry): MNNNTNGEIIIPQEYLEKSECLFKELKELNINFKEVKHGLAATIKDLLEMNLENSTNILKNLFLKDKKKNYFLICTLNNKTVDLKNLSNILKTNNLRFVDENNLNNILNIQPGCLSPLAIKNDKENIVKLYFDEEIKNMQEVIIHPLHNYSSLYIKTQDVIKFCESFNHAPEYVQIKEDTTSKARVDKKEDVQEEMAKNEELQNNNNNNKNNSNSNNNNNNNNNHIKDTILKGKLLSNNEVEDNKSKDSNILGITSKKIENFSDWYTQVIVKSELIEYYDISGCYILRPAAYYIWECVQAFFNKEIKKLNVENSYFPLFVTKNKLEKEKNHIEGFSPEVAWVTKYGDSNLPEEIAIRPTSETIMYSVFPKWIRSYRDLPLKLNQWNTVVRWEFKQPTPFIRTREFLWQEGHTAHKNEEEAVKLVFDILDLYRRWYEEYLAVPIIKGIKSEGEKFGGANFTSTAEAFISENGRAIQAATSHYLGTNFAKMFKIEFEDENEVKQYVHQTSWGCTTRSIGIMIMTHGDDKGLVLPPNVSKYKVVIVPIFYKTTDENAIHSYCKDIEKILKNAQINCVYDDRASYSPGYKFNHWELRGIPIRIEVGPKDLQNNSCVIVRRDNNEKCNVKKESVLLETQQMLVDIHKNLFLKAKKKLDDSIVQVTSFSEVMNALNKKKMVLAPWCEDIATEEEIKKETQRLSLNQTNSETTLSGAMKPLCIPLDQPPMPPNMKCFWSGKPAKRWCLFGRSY

[3] = molecular target: Calcium-dependent protein kinase 1 (Plasmodium falciparum, UniProt P62344); experiment: MMV: CDPK1 Protein kinase inhibition assay using recombinant PfCDPK1, syntide 2 peptide substrate, ATP and KinaseGlo to measure % inhibition at 1 uM MMV box compound.
Chain of Calcium-dependent protein kinase 1 (P62344 whole entry): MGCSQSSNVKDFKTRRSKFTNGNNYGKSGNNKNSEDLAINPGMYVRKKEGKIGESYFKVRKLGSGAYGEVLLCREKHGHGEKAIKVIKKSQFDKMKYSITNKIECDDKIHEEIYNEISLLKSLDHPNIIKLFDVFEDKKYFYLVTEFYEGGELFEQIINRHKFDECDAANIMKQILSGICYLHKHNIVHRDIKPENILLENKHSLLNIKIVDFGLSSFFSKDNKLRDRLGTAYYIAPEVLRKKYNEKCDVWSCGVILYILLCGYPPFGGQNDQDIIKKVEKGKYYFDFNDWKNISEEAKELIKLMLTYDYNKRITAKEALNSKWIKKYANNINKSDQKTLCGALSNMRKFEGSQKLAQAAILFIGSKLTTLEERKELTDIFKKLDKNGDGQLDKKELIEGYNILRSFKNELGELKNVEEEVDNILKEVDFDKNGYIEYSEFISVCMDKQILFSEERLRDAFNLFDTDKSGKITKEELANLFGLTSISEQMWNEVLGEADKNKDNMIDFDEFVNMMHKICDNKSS

[4] = molecular target: Lysine--tRNA ligase (Plasmodium falciparum (isolate 3D7), UniProt Q8IDJ8); experiment: MMV: KRS recombinant Plasmodium falciparum Lysyl-tRNA-synthetase, assay with yeast tRNA, ATP, and lysine and 3 uM MMV malaria box compound, assay read out with kinase glo as % inhibition.
Chain of Lysine--tRNA ligase (Q8IDJ8 whole entry): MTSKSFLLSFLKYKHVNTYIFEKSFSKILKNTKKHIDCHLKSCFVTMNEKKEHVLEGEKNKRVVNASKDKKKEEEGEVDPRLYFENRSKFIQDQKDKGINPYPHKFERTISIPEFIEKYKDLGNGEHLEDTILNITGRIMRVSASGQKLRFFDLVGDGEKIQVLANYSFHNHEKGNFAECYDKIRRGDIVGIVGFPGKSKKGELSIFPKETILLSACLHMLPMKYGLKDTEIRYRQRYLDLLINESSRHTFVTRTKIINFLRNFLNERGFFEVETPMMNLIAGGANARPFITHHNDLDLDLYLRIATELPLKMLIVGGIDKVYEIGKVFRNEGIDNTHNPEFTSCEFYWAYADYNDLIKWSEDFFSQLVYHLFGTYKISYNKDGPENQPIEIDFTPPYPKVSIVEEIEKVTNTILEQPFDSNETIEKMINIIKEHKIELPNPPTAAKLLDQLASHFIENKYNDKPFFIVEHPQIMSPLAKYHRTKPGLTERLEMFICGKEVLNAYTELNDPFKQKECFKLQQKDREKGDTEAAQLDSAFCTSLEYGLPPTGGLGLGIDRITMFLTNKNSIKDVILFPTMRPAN

[5] = molecular target: T3, Mitogen-activated protein kinase (Plasmodium falciparum, UniProt Q25917); experiment: Final concentrations were 1 uM ATP, 0.5 mM DTT, 1 mM MgCl2, 0.5 mg/mL BSA, and 10 ug/ml MAP2 in a buffer of 50 mM HEPES (pH 7.0). 0.5 mg/mL histone III-S served as the substrate (13); 100 uM AMP-PNP, an ATP analog, was used as a control inhibitor. Incubation time was 4 hours.
T3 sequence (Q25917 whole entry): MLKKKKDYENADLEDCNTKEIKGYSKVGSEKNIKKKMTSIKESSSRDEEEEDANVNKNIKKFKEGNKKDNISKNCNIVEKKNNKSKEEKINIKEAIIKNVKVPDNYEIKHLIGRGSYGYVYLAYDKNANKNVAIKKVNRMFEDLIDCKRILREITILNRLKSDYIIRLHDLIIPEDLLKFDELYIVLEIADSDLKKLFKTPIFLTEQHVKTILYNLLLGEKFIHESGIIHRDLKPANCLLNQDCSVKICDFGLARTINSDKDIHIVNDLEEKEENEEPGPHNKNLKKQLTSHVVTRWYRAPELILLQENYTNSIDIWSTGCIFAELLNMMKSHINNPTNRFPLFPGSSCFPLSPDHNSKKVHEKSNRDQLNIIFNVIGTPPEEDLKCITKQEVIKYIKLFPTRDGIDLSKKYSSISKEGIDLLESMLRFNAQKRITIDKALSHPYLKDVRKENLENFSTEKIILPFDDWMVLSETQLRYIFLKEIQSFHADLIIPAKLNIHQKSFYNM

[6] = molecular target: T4, Calcium-dependent protein kinase 4 (Plasmodium falciparum (isolate 3D7), UniProt Q8IBS5); experiment: MMV: CDPK4 Protein kinase inhibition assay using recombinant PfCDPK4, syntide2 peptide substrate, ATP and KinaseGlo to measure % inhibition at 1 uM MMV box compound.
T4 sequence (Q8IBS5 whole entry): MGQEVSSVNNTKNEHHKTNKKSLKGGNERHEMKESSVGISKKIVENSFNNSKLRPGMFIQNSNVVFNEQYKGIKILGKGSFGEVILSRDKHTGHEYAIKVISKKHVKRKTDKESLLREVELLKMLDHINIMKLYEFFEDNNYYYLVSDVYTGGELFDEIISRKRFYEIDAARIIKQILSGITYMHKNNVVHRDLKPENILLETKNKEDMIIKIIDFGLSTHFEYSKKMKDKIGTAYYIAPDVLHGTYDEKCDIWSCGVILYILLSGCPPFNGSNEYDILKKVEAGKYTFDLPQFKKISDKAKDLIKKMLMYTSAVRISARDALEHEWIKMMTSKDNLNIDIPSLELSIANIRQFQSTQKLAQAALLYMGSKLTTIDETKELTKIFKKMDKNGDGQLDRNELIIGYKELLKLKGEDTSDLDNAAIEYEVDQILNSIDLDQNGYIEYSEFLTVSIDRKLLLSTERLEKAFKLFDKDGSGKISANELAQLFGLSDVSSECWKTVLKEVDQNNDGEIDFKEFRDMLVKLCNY

[7] = molecular target: T5, Cdk-related protein kinase 6 (Plasmodium falciparum, UniProt O77239); experiment: Final concentrations were 1.5 uM ATP, 5 mM MnCl2, and 15 ug/ml PK6 in a buffer of 100 mM Tris-HCl (pH 7.5). 50 ug/mL MBP was provided as the substrate; 10 uM staurosporine was used as a control inhibitor. Incubation time was 3 hours and 40 minutes.The catalytic activity of each kinase was considered proportional to ATP consumed, as determined from measurements of residual [ATP] with the luciferase-based reagent Kinase-Glo (Promega) following incubation. Luminescence (proportional to residual [ATP]) was measured on the plate readers FLx800 (BioTek Instruments, Winooski, VT, USA) and MicroBeta2.
T5 sequence (O77239 whole entry): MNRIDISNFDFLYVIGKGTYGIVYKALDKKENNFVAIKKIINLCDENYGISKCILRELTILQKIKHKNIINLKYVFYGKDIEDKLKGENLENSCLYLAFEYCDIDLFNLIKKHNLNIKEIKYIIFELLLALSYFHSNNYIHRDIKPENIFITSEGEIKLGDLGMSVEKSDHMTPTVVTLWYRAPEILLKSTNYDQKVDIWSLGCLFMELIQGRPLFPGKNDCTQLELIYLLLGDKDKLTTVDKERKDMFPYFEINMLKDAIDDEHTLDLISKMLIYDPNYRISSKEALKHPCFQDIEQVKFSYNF

SMILES	IC50 [1]	IC50 [2]	IC50 [3]	IC50 [4]	IC50 [5]	IC50 [6]	IC50 [7]
Cc1cc(C)cc(Nc2cc(C)nc3nc(C(F)(F)F)nn23)c1	> 1000 nM	> 2500 nM	> 1000 nM	> 2500 nM	> 1000 nM	> 1000 nM	> 1000 nM
O=C(NCC(c1ccsc1)N1CCCCCC1)c1ccc(C(F)(F)F)cc1 (stereo not given)	> 1000 nM	> 2500 nM	> 1000 nM	> 2500 nM	> 1000 nM	> 1000 nM	> 1000 nM
Cc1ccc(-c2cc3c(SCC(=O)Nc4cc(C(F)(F)F)ccc4Cl)nccn3n2)cc1	> 1000 nM	> 2500 nM	> 1000 nM	> 2500 nM	> 1000 nM	> 1000 nM	> 1000 nM
CCCCCC(=O)N1c2ccccc2N=C2CC(c3ccc(OC)c(OC)c3)CC(O)=C2C1c1ccc(C(F)(F)F)cc1 (stereo not given)	> 1000 nM	> 2500 nM	> 1000 nM	> 2500 nM	> 1000 nM	> 1000 nM	> 1000 nM
Cc1cc(NCCN2CCCCC2)c2ccc3ccccc3c2n1	> 1000 nM	> 2500 nM	> 1000 nM	> 2500 nM	> 1000 nM	> 1000 nM	> 1000 nM
Cc1ccc(N2C(=O)C3C(C2=O)C2(c4ccccc4)C(=O)C3(c3ccccc3)C(c3ccccc3)=C2c2ccccc2)cc1 (stereo not given)	> 1000 nM	> 2500 nM	> 1000 nM	> 2500 nM	> 1000 nM	> 1000 nM	> 1000 nM
CCc1c(C)c(=N)c2ccccc2n1C	> 1000 nM	> 2500 nM	> 1000 nM	> 2500 nM	> 1000 nM	> 1000 nM	> 1000 nM
CCOC(=O)C1=C(c2ccccc2)N=c2sc(=Cc3cc(C)n(-c4ccc(F)cc4)c3C)c(=O)n2C1c1cccc(OC)c1OC (stereo not given)	> 1000 nM	> 2500 nM	> 1000 nM	> 2500 nM	> 1000 nM	> 1000 nM	> 1000 nM
CCC1(C)CC(CCNCc2ccccc2O)(c2ccc(C)cc2)CCO1 (stereo not given)	> 1000 nM	> 2500 nM	> 1000 nM	> 2500 nM	> 1000 nM	> 1000 nM	> 1000 nM
Cc1cc(Nc2ccc(C)c(Cl)c2)n2nc(C(F)(F)F)nc2n1	> 1000 nM	> 2500 nM	> 1000 nM	> 2500 nM	> 1000 nM	> 1000 nM	> 1000 nM
Fc1ccc2[nH]c3c(NCCCN4CCOCC4)ncnc3c2c1	> 1000 nM	> 2500 nM	> 1000 nM	> 2500 nM	> 1000 nM	> 1000 nM	> 1000 nM
Cc1cccc(Nc2nc(N)c3ccccc3n2)c1	> 1000 nM	> 2500 nM	> 1000 nM	> 2500 nM	> 1000 nM	> 1000 nM	> 1000 nM
CCn1c(CN2CCN(Cc3ccccc3)CC2)nc2cc(NC(=O)c3cccs3)ccc21	> 1000 nM	> 2500 nM	> 1000 nM	> 2500 nM	> 1000 nM	> 1000 nM	> 1000 nM
COc1cc(OC)c(N(C)C(=O)c2cc3c(s2)-c2ccccc2S(=O)(=O)C3)cc1Cl	> 1000 nM	> 2500 nM	> 1000 nM	> 2500 nM	> 1000 nM	> 1000 nM	> 1000 nM
COc1ccccc1CNC(=O)CCn1c(=O)[nH]c2ccsc2c1=O	> 1000 nM	> 2500 nM	> 1000 nM	> 2500 nM	> 1000 nM	> 1000 nM	> 1000 nM
COc1ccc(Br)cc1C1Nc2ccc3ccccc3c2C2=C1C(=O)CC(c1ccccc1)C2 (stereo not given)	> 1000 nM	> 2500 nM	> 1000 nM	> 2500 nM	> 1000 nM	> 1000 nM	> 1000 nM
Cc1cc(C=C2SC(=Nc3ccccc3)N(C3CCCC3)C2=O)c(C)n1-c1ccc(Cl)cc1	> 1000 nM	> 2500 nM	> 1000 nM	> 2500 nM	> 1000 nM	> 1000 nM	> 1000 nM
CCc1ccc(Nc2cc(C)c3ccc(O)cc3n2)cc1	> 1000 nM	> 2500 nM	> 1000 nM	> 2500 nM	> 1000 nM	> 1000 nM	> 1000 nM
CCCc1c(CC)c(=N)c2ccccc2n1C	> 1000 nM	> 2500 nM	> 1000 nM	> 2500 nM	> 1000 nM	> 1000 nM	> 1000 nM
CCOC(=O)c1cnc2c(C)cc(C)cc2c1Nc1ccc(OC)c(OC)c1	> 1000 nM	> 2500 nM	> 1000 nM	> 2500 nM	> 1000 nM	> 1000 nM	> 1000 nM
